The text below walks through data of patent publication US7060697B2, “Immunosuppressant compounds and compositions” (IRM LLC, priority 2003, dated 2006).

By ED50 is commonly meant the midpoint of the dose-response relation. The EC50 is the midpoint of the concentration-response curve. Low values mean greater potency, high ones weaker potency.

The subject of assay [1] is blood lymphocytes. The assay is described as follows: Measurement of circulating lymphocytes (blood lymphocyte depletion). Type of assay: in vivo, Rats (C57b1/6 male). The following applies: Rattus norvegicus, oral gavage, blood collected 6 and 24 hours after administration, read-out: ED50 (effective dose required displaying 50% of blood lymphocyte depletion). The protocol: C. In vivo: Screening Assays for Measurement of Blood Lymphocyte Depletion and Assessment of Heart Effect
Measurement of circulating lymphocytes: Compounds are dissolved in DMSO and diluted to obtain a final concentration of 4% DMSO (v/v, final concentration) and then further diluted in a constant volume of Tween80 25%/H2O, v/v. Tween80 25%/H2O (200 μl), 4% DMSO, and FTY720 (10 μg) are included as negative and positive controls, respectively. Rats (C57b1/6 male, 6–10 week-old) are administered 250–300 μL of compound solution orally by gavages under short isoflurane anesthesia.
Blood is collected from the retro-orbital sinus 6 and 24 hours after drug administration under short isoflurane anesthesia. Whole blood samples are subjected to hematology analysis. Peripheral lymphocyte counts are determined using an automated analyzer. Subpopulations of peripheral blood lymphocytes are stained by fluorochrome-conjugated specific antibodies and analyzed using a fluorescent activating cell sorter (Facscalibur). Two rats are used to assess the lymphocyte depletion activity of each compound screened. The result is an ED50, which is defined as the effective dose required displaying 50% of blood lymphocyte depletion.

Assay [2] addresses T1, human EDG-1 (Homo sapiens, UniProt P21453).
T1 construct: c-myc (N); expressed in transfected cells; homogenized membranes
In words: GPCR activation assay measuring GTP [γ-35S] binding to membranes from CHO cells expressing human EDG receptors. It counts as biochemical. The protocol: A. In vitro: GPCR Activation Assay Measuring GTP [γ-^35S] Binding to Membranes Prepared from CHO Cells Expressing Human EDG Receptors
EDG-1 (S1P1) GTP [γ-^35S] binding assay: Homogenized membranes are prepared from CHO cell clones stably expressing a human EDG-1 N-terminal c-myc tag. Cells are grown in suspension in two 850 cm^2 roller bottles for three or fours days before harvesting. The cells are centrifuged down, washed once with cold PBS, and resuspended in ≦20 ml of Buffer A (20 mM HEPES, pH 7.4, 10 mM EDTA, EDTA-free complete protease inhibitor cocktail [1 tablet/25 ml]). The cell suspension is homogenized on ice, using a Polytron homogenizer at 30000 rpm at three intervals of 15 seconds each. The homogenate is first centrifuged at 2000 rpm on a tabletop low speed centrifuge for 10 minutes. The supernatant, after passing through a cell strainer, is then re-centrifuged at 50,000×g for 25 minutes at 4° C. The pellet is resuspended into buffer B (15% glycerol, 20 mM HEPES, pH 7.4, 0.1 mM EDTA, EDTA-free complete protease inhibitor cocktail [1 tablet/10 ml]). Protein concentration of the prep is determined using the BCA Protein Assay kit (Pierce) using BSA as standard. The membranes are aliquoted and kept frozen at −80° C.
Solutions of test compounds ranging from 10 mM to 0.01 nM are prepared in DMSO. S1P is diluted in 4% BSA solution as positive controls. […]

T1 sequence (P21453 whole entry): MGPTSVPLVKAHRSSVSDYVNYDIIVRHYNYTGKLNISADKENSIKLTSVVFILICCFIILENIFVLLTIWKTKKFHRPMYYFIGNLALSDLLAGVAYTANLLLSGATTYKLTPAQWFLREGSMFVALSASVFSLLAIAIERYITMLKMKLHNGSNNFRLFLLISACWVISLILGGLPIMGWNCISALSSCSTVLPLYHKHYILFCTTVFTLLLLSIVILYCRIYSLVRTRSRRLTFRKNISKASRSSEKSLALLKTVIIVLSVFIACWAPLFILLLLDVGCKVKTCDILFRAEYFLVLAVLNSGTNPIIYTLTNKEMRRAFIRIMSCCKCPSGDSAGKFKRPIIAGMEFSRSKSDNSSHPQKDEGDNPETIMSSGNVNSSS

`O=C(O)C1CN(Cc2ccc(SCc3ccc(-c4ccccc4)c(C(F)(F)F)c3)cc2)C1` [Compound 9, 1-[4-(2-trifluoromethyl-biphenyl-4-ylmethylsulfanyl)-benzyl]-azetidine-3-carboxylic acid]: in assay [1], the median effective dose (ED50) is below 0.1 mg/kg. The 50% effective concentration (EC50) in assay [2] (EDG-1 (S1P1) GTP [γ-35S] binding, CHO cell membranes) was determined as 0.82 nM. In addition, the “selectivity for EDG-1 compared to one or more of the other receptors including EDG-3, EDG-5, EDG-6 and EDG-8” value in assay [2] (GTP [γ-35S] binding assays) is on record as “at least 1000 fold”.
